According to patent US8952024B2, “Herbicidal pyrimidone derivatives” (E I du Pont de Nemours and Company, priority 2009, dated 2015):

Columns and labels:
Format in all cases: in vivo
[1] = test system: morningglory (Ipomoea coccinea); assay: Test B pre-/postemergence plant response
Excerpt: (§1) Seeds of plant species selected from blackgrass (Alopecurus myosuroides), downy bromegrass (Bromus tectorum), green foxtail (Setaria viridis), Italian ryegrass (Lolium multiflorum), wheat (Triticum aestivum), wild oat (Avena fatua), deadnettle (henbit deadnettle, Lamium amplexicaule), galium (catchweed bedstraw, Galium aparine), bermudagrass (Cynodon dactylon), Surinam grass (Brachiaria decumbens), cocklebur (Xanthium strumarium), corn (Zea mays), large crabgrass (Digitaria sanguinalis), woolly cupgrass (Eriochloa villosa), giant foxtail (Setaria faberii), goosegrass (Eleusine indica), johnsongrass (Sorghum halepense), kochia (Kochia scoparia), lambsquarters (Chenopodium album), morningglory (Ipomoea coccinea), nightshade (eastern black nightshade, Solanum ptycanthum), yellow nutsedge (Cyperus esculentus), pigweed (Amaranthus retroflexus), ragweed (common ragweed, Ambrosia elatior), Russian thistle (Salsola kali), soybean (Glycine max), sunflower (common oilseed sunflower, Helianthus annuus) and velvetleaf (Abutilon theophrasti) were planted into a blend of loam soil and sand and treated preemergence with test compounds formulated in a non-phytotoxic solvent mixture which included a surfactant.
(§2) At the same time, plants selected from these crop and weed species and also winter barley (Hordeum vulgare), canarygrass (Phalaris minor), chickweed (Stellaria media) and windgrass (Apera spica-venti) were planted in pots containing Redi-Earth® planting medium (Scotts Company, 14111 Scottslawn Road, Marysville, Ohio 43041) comprising spaghnum peat moss, vermiculite, wetting agent and starter nutrients and treated with postemergence applications of some of the test chemicals formulated in the same manner. Plants ranged in height from 2 to 18 cm (1- to 4-leaf stage) for postemergence treatments.
(§3) Treated plants and controls were maintained in a greenhouse for 13 to 15 days, after which time all treated plants were visually evaluated and compared to controls. Plant response ratings, summarized in Table B, are based on a scale of 0 to 100 where 0 is no effect and 100 is complete control. A dash (-) response means no test result.

[2] = test system: blackgrass (Alopecurus myosuroides); assay: Test B pre-/postemergence plant response
Excerpt: as §1, §2, §3

[3] = test system: cocklebur (Xanthium strumarium); assay: Test B pre-/postemergence plant response
Excerpt: as §1, §2, §3

[4] = test system: bermudagrass (Cynodon dactylon); assay: Test B pre-/postemergence plant response
Excerpt: as §1, §2, §3

[5] = test system: johnsongrass (Sorghum halepense); assay: Test B pre-/postemergence plant response
Excerpt: as §1, §2, §3

soybean (Glycine max) = assay: Test B pre-/postemergence plant response
Excerpt: as §1, §2, §3

kochia (Kochia scoparia) = assay: Test B pre-/postemergence plant response
Excerpt: as §1, §2, §3

wild oat (Avena fatua) = assay: Test B pre-/postemergence plant response
Excerpt: as §1, §2, §3

corn (Zea mays) = assay: Test B pre-/postemergence plant response
Excerpt: as §1, §2, §3

[6] = test system: giant foxtail (Setaria faberii); assay: Test B pre-/postemergence plant response
Excerpt: as §1, §2, §3

[7] = test system: canarygrass (Phalaris minor); assay: Test B postemergence plant response; settings: Postemergence; for Canarygrass plant response rating: 250 g ai/ha, scale 0 to 100
Outline: (§4)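 Plants at the 1- to 4-leaf stage (2 to 18 cm tall), grown in pots of peat moss/vermiculite medium with wetting agent and starter nutrients, received postemergence applications of test chemicals. After 13 to 15 days in a greenhouse, injury was rated visually against untreated controls on a 0 (no effect) to 100 (complete control) scale.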

[8] = test system: chickweed (Stellaria media); assay: Test B postemergence plant response; settings: Postemergence; for Chickweed plant response rating: 250 g ai/ha, scale 0 to 100
Outline: as §4

[9] = test system: winter barley (Hordeum vulgare); assay: Test B postemergence plant response; settings: Postemergence; for Barley plant response rating: 250 g ai/ha, scale 0 to 100
Outline: as §4

[10] = test system: windgrass (Apera spica-venti); assay: Test B postemergence plant response; settings: Postemergence; for Windgrass plant response rating: 250 g ai/ha, scale 0 to 100
Outline: as §4

[11] = Postemergence, 31 g ai/ha, scale 0 to 100 (0 no effect, 100 complete control)
[12] = Postemergence, 62 g ai/ha, scale 0 (no effect) to 100 (complete control), 13 to 15 days
[13] = Postemergence, 125 g ai/ha, visual rating after 13 to 15 days, scale 0 (no effect) to 100 (complete control)
[14] = Postemergence, 250 g ai/ha, scale 0 to 100
[15] = Postemergence, 125 g ai/ha, scale 0 to 100 (0 no effect, 100 complete control), 13 to 15 days
[16] = 31 g ai/ha, scale 0 to 100 (0 no effect, 100 complete control)
[17] = 62 g ai/ha, scale 0 (no effect) to 100 (complete control), 13 to 15 days
[18] = 125 g ai/ha, visual rating after 13 to 15 days, scale 0 (no effect) to 100 (complete control)
[19] = 125 g ai/ha, scale 0 to 100 (0 no effect, 100 complete control), 13 to 15 days
[20] = 250 g ai/ha, Preemergence, 0 to 100 scale
[21] = Preemergence, 31 g ai/ha, scale 0 to 100 (0 no effect, 100 complete control)
[22] = Preemergence, 62 g ai/ha, scale 0 to 100 (0 no effect, 100 complete control)
[23] = Preemergence, 125 g ai/ha, 0 to 100 scale

Cc1ccc(-n2c(-c3ccccc3)ncc(C(=O)C3=C(O)CCCC3=O)c2=O)cc1 [Compound 8]
5: Plant response rating, Blackgrass [2, 11] | Plant response rating, Barley [9, 19] | Plant response rating, Windgrass [10, 16]
10: Plant response rating, Blackgrass [2, 12] | Plant response rating, Blackgrass [2, 13] | Plant response rating, Oat, Wild (wild oat (Avena fatua); [11])
75: Plant response rating, Morningglory [1, 11] | Plant response rating, Corn (corn (Zea mays); [13])
15: Plant response rating, Oat, Wild (wild oat (Avena fatua); [12]) | Plant response rating, Corn (corn (Zea mays); [11])
35: Plant response rating, Oat, Wild (wild oat (Avena fatua); [13]) | Oat, Wild plant response rating (wild oat (Avena fatua); [14])
60: Plant response rating, Bermudagrass [4, 11]
65: Plant response rating, Corn (corn (Zea mays); [12])
30: Plant response rating, Windgrass [10, 18]
50: Plant response rating, Canarygrass [7, 17]
90: Plant response rating, Morningglory [1, 12]
40: Windgrass plant response rating [10]
100: Plant response rating, Morningglory [1, 13] | Morningglory plant response rating [1, 14] | Plant response rating, Cocklebur [3, 11] | Plant response rating, Cocklebur [3, 12] | Plant response rating, Cocklebur [3, 13] | Cocklebur plant response rating [3, 14] | Bermudagrass plant response rating [4, 14] | Johnsongrass plant response rating [5, 14] | Soybean plant response rating (soybean (Glycine max); [14]) | Plant response rating, Kochia (kochia (Kochia scoparia); [12]) | Plant response rating, Kochia (kochia (Kochia scoparia); [13]) | Kochia plant response rating (kochia (Kochia scoparia); [14]) | Plant response rating, Foxtail, Giant [6, 12] | Plant response rating, Foxtail, Giant [6, 13] | Foxtail, Giant plant response rating [6, 14] | Plant response rating, Chickweed [8, 17] | Plant response rating, Chickweed [8, 18] | Chickweed plant response rating [8]
20: Blackgrass plant response rating [2, 14] | Plant response rating, Canarygrass [7, 16] | Barley plant response rating [9] | Plant response rating, Windgrass [10, 17]
80: Plant response rating, Johnsongrass [5, 11] | Corn plant response rating (corn (Zea mays); [14])
85: Plant response rating, Bermudagrass [4, 12] | Plant response rating, Kochia (kochia (Kochia scoparia); [11]) | Canarygrass plant response rating [7]
0: Plant response rating, Barley [9, 16] | Plant response rating, Barley [9, 17]
98: Plant response rating, Johnsongrass [5, 12] | Plant response rating, Johnsongrass [5, 13] | Plant response rating, Soybean (soybean (Glycine max); [11]) | Plant response rating, Soybean (soybean (Glycine max); [12]) | Plant response rating, Soybean (soybean (Glycine max); [13]) | Plant response rating, Foxtail, Giant [6, 11] | Plant response rating, Chickweed [8, 16]
70: Plant response rating, Canarygrass [7, 18]
95: Plant response rating, Bermudagrass [4, 15]

Cc1ccccc1-n1c(-c2ccccc2)ncc(C(=O)C2=C(O)CCCC2=O)c1=O [Compound 12]
98: Plant response rating, Cocklebur [3, 12] | Cocklebur plant response rating [3, 23] | Plant response rating, Bermudagrass [4, 15] | Plant response rating, Johnsongrass [5, 20] | Plant response rating, Soybean (soybean (Glycine max); [11]) | Plant response rating, Foxtail, Giant [6, 13] | Foxtail, Giant plant response rating [6, 14]
55: Plant response rating, Morningglory [1, 22] | Plant response rating, Johnsongrass [5, 11]
90: Plant response rating, Foxtail, Giant [6, 12]
80: Plant response rating, Cocklebur [3, 22] | Soybean plant response rating (soybean (Glycine max); [23])
100: Plant response rating, Morningglory [1, 20] | Plant response rating, Cocklebur [3, 20] | Plant response rating, Cocklebur [3, 13] | Cocklebur plant response rating [3, 14] | Plant response rating, Bermudagrass [4, 20] | Bermudagrass plant response rating [4, 14] | Plant response rating, Bermudagrass [4, 21] | Plant response rating, Bermudagrass [4, 22] | Bermudagrass plant response rating [4, 23] | Plant response rating, Soybean (soybean (Glycine max); [12]) | Plant response rating, Soybean (soybean (Glycine max); [13]) | Soybean plant response rating (soybean (Glycine max); [14]) | Plant response rating, Kochia (kochia (Kochia scoparia); [20]) | Plant response rating, Kochia (kochia (Kochia scoparia); [22]) | Kochia plant response rating (kochia (Kochia scoparia); [23]) | Plant response rating, Foxtail, Giant [6, 20] | Plant response rating, Chickweed [8, 16] | Plant response rating, Chickweed [8, 17] | Plant response rating, Chickweed [8, 18] | Chickweed plant response rating [8]
25: Plant response rating, Cocklebur [3, 21] | Plant response rating, Corn (corn (Zea mays); [11])
70: Plant response rating, Morningglory [1, 13] | Plant response rating, Cocklebur [3, 11] | Foxtail, Giant plant response rating [6, 23]
60: Plant response rating, Morningglory [1, 12] | Plant response rating, Johnsongrass [5, 12] | Plant response rating, Johnsongrass [5, 13] | Plant response rating, Soybean (soybean (Glycine max); [21]) | Plant response rating, Kochia (kochia (Kochia scoparia); [13])
15: Plant response rating, Morningglory [1, 11] | Plant response rating, Kochia (kochia (Kochia scoparia); [21]) | Corn plant response rating (corn (Zea mays); [23])
50: Windgrass plant response rating [10]
10: Plant response rating, Blackgrass [2, 20] | Plant response rating, Blackgrass [2, 11] | Plant response rating, Blackgrass [2, 12] | Plant response rating, Blackgrass [2, 13] | Plant response rating, Windgrass [10, 16]
30: Plant response rating, Corn (corn (Zea mays); [12])
85: Morningglory plant response rating [1, 23] | Plant response rating, Bermudagrass [4, 12]
40: Plant response rating, Morningglory [1, 21] | Canarygrass plant response rating [7] | Plant response rating, Windgrass [10, 17]
65: Plant response rating, Bermudagrass [4, 11] | Plant response rating, Soybean (soybean (Glycine max); [22]) | Kochia plant response rating (kochia (Kochia scoparia); [14])
75: Johnsongrass plant response rating [5, 14] | Johnsongrass plant response rating [5, 23] | Plant response rating, Corn (corn (Zea mays); [20]) | Corn plant response rating (corn (Zea mays); [14]) | Plant response rating, Foxtail, Giant [6, 11]
5: Blackgrass plant response rating [2, 23] | Plant response rating, Oat, Wild (wild oat (Avena fatua); [20]) | Plant response rating, Oat, Wild (wild oat (Avena fatua); [12]) | Plant response rating, Canarygrass [7, 17] | Plant response rating, Canarygrass [7, 18]
20: Blackgrass plant response rating [2, 14] | Plant response rating, Kochia (kochia (Kochia scoparia); [11]) | Plant response rating, Kochia (kochia (Kochia scoparia); [12]) | Plant response rating, Oat, Wild (wild oat (Avena fatua); [13]) | Oat, Wild plant response rating (wild oat (Avena fatua); [14]) | Plant response rating, Foxtail, Giant [6, 22]
0: Plant response rating, Blackgrass [2, 21] | Plant response rating, Blackgrass [2, 22] | Plant response rating, Johnsongrass [5, 21] | Plant response rating, Johnsongrass [5, 22] | Plant response rating, Oat, Wild (wild oat (Avena fatua); [11]) | Plant response rating, Oat, Wild (wild oat (Avena fatua); [21]) | Plant response rating, Oat, Wild (wild oat (Avena fatua); [22]) | Oat, Wild plant response rating (wild oat (Avena fatua); [23]) | Plant response rating, Corn (corn (Zea mays); [21]) | Plant response rating, Corn (corn (Zea mays); [22]) | Plant response rating, Foxtail, Giant [6, 21] | Plant response rating, Canarygrass [7, 16] | Plant response rating, Barley [9, 16] | Plant response rating, Barley [9, 17] | Plant response rating, Barley [9, 19] | Barley plant response rating [9]
45: Plant response rating, Corn (corn (Zea mays); [13]) | Plant response rating, Windgrass [10, 18]
95: Morningglory plant response rating [1, 14] | Plant response rating, Soybean (soybean (Glycine max); [20])
